Results from patent US10501453B2, “Benzothiazole or benzoxazole compounds as SUMO activators” (Icahn School of Medicine at Mount Sinai, priority 2012, dated 2019).

Columns and labels:
Serca2 KO mice = assay: Hemodynamics in Serca2 knockout mice; format: in vivo, mouse; settings: before vs after infusion
Description: Adult mice with an inducible cardiomyocyte-specific excision of the Atp2a2 (Serca2) gene (Serca2 KO) were used. Four weeks after induction of Serca2 gene excision, the mice display a substantial reduction in systolic and diastolic function (FIG. 11a). […] The decay constant, tau value was nearly 1.3-fold (Serca2 KO, […]; WT, […], p<0.001) larger in Serca2 KO mice compared with WT control (FIG. 11b). The expression of SERCA2a was completely lacking in Serca2 KO mice (FIG. 11c).
Hemodynamic parameters obtained before and after infusion of Example 1 were compared. […] The dose-dependent enhancement of cardiac contractility disappeared in Serca2 KO mice (FIG. 6b).

SUMO E1 enzyme = molecular target: T1, SUMO E1 enzyme (Homo sapiens, UniProt Q9UBT2); assay: ATP-dependent activation of SUMO-1 (ATP hydrolysis); format: biochemical
T1 sequence (Q9UBT2 1-640): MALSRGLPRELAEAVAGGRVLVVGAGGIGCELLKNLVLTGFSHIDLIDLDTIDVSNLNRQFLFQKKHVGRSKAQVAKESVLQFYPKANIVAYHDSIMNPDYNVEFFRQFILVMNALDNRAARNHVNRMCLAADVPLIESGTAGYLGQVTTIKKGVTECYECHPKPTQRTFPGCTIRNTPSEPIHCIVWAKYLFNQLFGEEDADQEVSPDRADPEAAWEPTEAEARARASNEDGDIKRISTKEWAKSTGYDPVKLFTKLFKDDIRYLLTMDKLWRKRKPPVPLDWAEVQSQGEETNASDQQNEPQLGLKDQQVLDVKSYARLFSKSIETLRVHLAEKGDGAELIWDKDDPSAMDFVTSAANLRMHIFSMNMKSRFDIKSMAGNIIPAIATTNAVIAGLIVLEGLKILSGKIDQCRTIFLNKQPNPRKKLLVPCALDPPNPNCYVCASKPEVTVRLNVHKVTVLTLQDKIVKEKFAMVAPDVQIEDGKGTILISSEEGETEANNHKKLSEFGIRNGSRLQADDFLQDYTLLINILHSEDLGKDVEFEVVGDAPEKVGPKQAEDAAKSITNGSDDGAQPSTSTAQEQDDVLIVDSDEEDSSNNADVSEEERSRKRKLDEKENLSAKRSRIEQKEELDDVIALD
T1 sequence (Q9UBE0 1-346): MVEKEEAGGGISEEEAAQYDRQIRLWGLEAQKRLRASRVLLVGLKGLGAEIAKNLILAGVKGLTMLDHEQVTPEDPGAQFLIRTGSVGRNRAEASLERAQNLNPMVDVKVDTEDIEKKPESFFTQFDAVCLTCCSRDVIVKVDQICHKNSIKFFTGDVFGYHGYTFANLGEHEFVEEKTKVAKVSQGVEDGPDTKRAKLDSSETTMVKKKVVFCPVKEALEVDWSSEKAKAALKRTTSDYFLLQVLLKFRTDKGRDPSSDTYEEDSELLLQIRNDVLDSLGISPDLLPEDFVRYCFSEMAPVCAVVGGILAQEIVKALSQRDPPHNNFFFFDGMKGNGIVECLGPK

SERCA2a = SERCA2a SUMOylation assay in HEK-293 cells (immunoprecipitation/immunoblotting); format: cell-based
Description: The following antibodies were used for immunoblotting and immunoprecipitation (IP): polyclonal anti-SERCA2a (21th century Biochem Inc.), monoclonal anti-GAPDH (Sigma-Aldrich, catalog no. G8795), monoclonal anti-SUMO 1 (Cell Signaling Technology Inc., catalog no. 4930), anti-mouse horseradish peroxidase (HRP) (Pierce Biotechnology Inc., catalog no. 32430), and anti-rabbit HRP (Pierce Biotechnology Inc., catalog no. 32460). YFP-tagged SUMO1, pcDNA3.0-SERCA2a, and HA-tagged Ubc9 plasmids were used for the transfection. The plasmid DNA was amplified in the Escherichia coli strain DH5a and extracted by using a commercial purification kit (Qiagen, catalog no. 12263). Purified plasmid was resuspended in sterile TE buffer (10 mM Tris-HCl and 1 mM EDTA, pH 7.6). Only the preparation highest purity (A260/A280>1.8) was used for transfection. 1 μg of each plasmid was used for transfection. HEK-293 cells (American Type Culture Collection, catalog no. CRL-1873) were grown at 37° C. and under a 5% CO2 humidified atmosphere in Dulbecco's modified Eagle's medium (DMEM, Cellgro, catalog no. 10-0 13-CM) containing 10% fetal bovine serum (SAFC Bioscience, catalog no. 12107) and 100 i.u of penicillin/ml and 100 μg of streptomycin/ml. HEK-293 cells were seeded at a density of 3-5×10^5 cells per 60 mm culture dish in DMEM. The cells were transiently transfected using Lipofectamine 2000 (Invitrogen, catalog no. 11668) with indicated expression plasmids. After 24 hours, the cells were treated with either small molecules or dimethyl sulfoxide (DMSO, Sigma-Aldrich, catalog no. D2650).
Each compound was added at 10 μM. DMSO was used as a control. After 24 hours at 37° C., SERCA2a SUMOylation and functional analysis were determined.
Equal amounts of protein from either small molecule treated or DMSO treated cells or immunoprecipitates were resolved by 7.5% SDS-PAGE and transferred to nitrocellulose membranes (Bio-Rad, catalog no. 162-0112). The membranes were blocked for 1 hour at room temperature with 5% non-fat milk (Cell Signaling Technology Inc., catalog no. 9999) in TBST (10 mM Tris-HCl, 150 mM NaCl, and 0.05% tween-20, pH 8.0). The blots were incubated with specific primary antibodies at 4° C. for overnight. The blots were then washed five times for 10 minutes each with TBST and incubated for 1 hour with HRP-conjugated secondary antibodies in TBST with 5% non-fat milk. After five times TBST washes, the protein bands were visualized with enhanced chemiluminescence (Pierce Biotechnology Inc., catalog no. 32132) and exposed to x-ray film (Denville Scientific Inc., catalog no. E3012). GAPDH expression provided an internal control.
Post-transfection (48 hours), the HEK-293 cells were rinsed twice with phosphate-buffered saline (PBS, Cellgro, catalog no. 21-040-CM) and lysed in 1% Nonidet P-40 lysis buffer (Boston Bioproducts, catalog no. BP-119) with 10 mM N-ethylmaleimide (NEM, Sigma-Aldrich, catalog no. N3876) and […] inhibitor cocktail (Complete Mini Tablet, Roche Applied Science, catalog no. 11836153001). 2 mg of protein were mixed with the anti-SERCA2a antibodies for overnight at 4° C. in lysis buffer. Pre-washed protein A-Separose beads (Pierce Biotechnology Inc., catalog no. 20333) was added to each sample and incubated 1 hour at 4° C. with gentle rocking. Immunocomplexes were washed with lysis buffer three times and precipitated by centrifugation at 12000×g for 10 seconds. The immunocomplexes were resuspended in SDS sample buffer and subjected to immunoblotting. Controls for the immunoprecipitations were performed using an anti-rabbit IgG equal to that of the primary precipitating antibody. Ten percent of whole cell lysates used in the immunoprecipitation was loaded for subsequent immunoblotting.
The ability of the Example compound to SUMOylate SERCA2a was examined using an in vitro system in HEK 293 cells where both SERCA2a and SUMO 1 are expressed. […]

- EC50 (SUMO E1 enzyme): 40.5 ± 4.4 µM
Structure (SMILES): COc1ccc(-c2nnc(Nc3nc4c(OC)cccc4s3)o2)cc1 [Example 1, N-(4-methoxybenzo[d]thiazol-2-yl)-5-(4-methoxyphenyl)-1,3,4-oxadiazol-2-amine]
- hemodynamic parameters in Serca2 KO mice (Serca2 KO mice): did not induce any improvements
- SERCA2a SUMOylation in HEK 293 cells (SERCA2a): increases SUMOylation of SERCA2a in a dose dependent manner
